This passage reports inhibition and IC50 results from patent publication US20240391948A1, “NOVEL COMPOUND THAT INHIBITS TNF-ALPHA GENERATION AND INFLAMMASOME ACTIVITY AND PREPARATION METHOD THEREFOR” (SHAPERON INC., priority 2021, published 2024).

What all share (format): cell-based
Experiment [1] deals with J774A.1 (Mouse BALB/c monocyte macrophage cell line) cells. Kind of experiment: LPS+ATP-induced IL-1β secretion inhibition in J774A.1 cells. As to conditions: J774.A1, 1 μM compound, graded compared to taurodeoxycholic acid (positive control), read-out: IL-1β production inhibition grade. In short, it runs like this: (§1)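 Grades (A >100%, B 50–100%, C 20–50%, D <20%) express cytokine suppression by 1 μM compound relative to taurodeoxycholic acid. LPS-induced TNF-α and LPS+ATP-induced IL-1β secretion were measured in murine J774A.1 macrophage cells.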

The subject of experiment [2] is U937 cells (human monocytic cell line). The experiment can be described thus: BzATP-induced IL-1β secretion inhibition in PMA-differentiated U937 cells. As to conditions: U-937, U937 cells differentiated with PMA, read-out: IL-1β production inhibition grade (IC50). The essentials: (§2)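 Inhibition is given as IC50 (μM) in A-D bands, using distinct thresholds for TNF-α and for IL-1β. Secretion followed Pam2CSK4 stimulation (TNF-α) or BzATP stimulation (IL-1β) of compound-pretreated, PMA-differentiated U937 macrophages.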

The test system is the same in experiment [3]. The experiment can be described thus: Pam2CSK4-induced TNF-α secretion inhibition in PMA-differentiated U937 cells. As to conditions: U-937, U937 cells differentiated with PMA, read-out: TNF-α production inhibition grade (IC50). The essentials: as §2
Experiment [4] deals with J774A.1 (Mouse BALB/c monocyte macrophage cell line) cells. Kind of experiment: LPS-induced TNF-α secretion inhibition in J774A.1 cells. As to conditions: J774.A1, 1 μM compound, graded compared to taurodeoxycholic acid (positive control), read-out: TNF-α production inhibition grade. In short, it runs like this:
as §1

Turning to `C[C@H](CCC(=O)N1CCC[C@H](S(=O)(=O)O)C1)[C@H]1CC[C@H]2[C@@H]3CC[C@@H]4CC(=O)CC[C@]4(C)[C@H]3CC[C@]12C` [NC30009], the inhibition at 1 µM lay within 20 to 50% in experiment [1] and 50 to 100% in experiment [4]. In addition, the IC50 in experiment [2] was at least 0.2 µM; in experiment [3] it was 0.5 to 1 µM.
Consider `C[C@H](CCC(=O)N1CCC[C@@H](S(=O)(=O)O)C1)[C@H]1CC[C@H]2[C@@H]3CC[C@@H]4CC(=O)CC[C@]4(C)[C@H]3CC[C@]12C` [NC30010], for which the inhibition at 1 µM in experiment [1] is 50 to 100%; in experiment [4], over 100%. For the same compound, the values for the IC50 in experiment [2] and in experiment [3] were under 0.05 µM and 0.5 to 1 µM, respectively.
Regarding `C[C@H](CCC(=O)N1CCC(S(=O)(=O)O)CC1)[C@H]1CC[C@H]2[C@@H]3CC[C@@H]4CC(=O)CC[C@]4(C)[C@H]3CC[C@]12C` [NC30011], the inhibition at 1 µM in experiment [1] and in experiment [4] was under 20% throughout. The IC50 is at least 0.2 µM in experiment [2] and 0.5 to 1 µM in experiment [3].
With `C[C@H](CCC(=O)N1CC(S(=O)(=O)O)C1)[C@H]1CC[C@H]2[C@@H]3CC[C@@H]4CC(=O)CC[C@]4(C)[C@H]3CC[C@]12C` [NC30012], the inhibition at 1 µM in experiment [1] was 20 to 50%; in experiment [4], under 20%. Besides, the IC50 in experiment [2] was at least 0.2 µM; in experiment [3], at least 2 µM.
In the case of `C[C@H](CCC(=O)NC(C)(C)CS(=O)(=O)O)[C@H]1CC[C@H]2[C@@H]3CC[C@@H]4CC(=O)CC[C@]4(C)[C@H]3CC[C@]12C` [NC30013], the inhibition at 1 µM in experiment [1] and in experiment [4] was 50 to 100% each time. Also, the IC50 in experiment [2] is at least 0.2 µM; in experiment [3], 0.5 to 1 µM.
In the case of `C[C@H](CCC(=O)N[C@@H](Cc1ccccc1)CS(=O)(=O)O)[C@H]1CC[C@H]2[C@@H]3CC[C@@H]4CC(=O)CC[C@]4(C)[C@H]3CC[C@]12C` [NC30014], the figures for the inhibition at 1 µM in experiment [1] and in experiment [4] were 20 to 50% and under 20%, respectively. For the same compound, the IC50 in experiment [2] was at least 0.2 µM; in experiment [3] it was 0.5 to 1 µM.
For the compound `C[C@H](CCC(=O)N[C@H](Cc1ccccc1)CS(=O)(=O)O)[C@H]1CC[C@H]2[C@@H]3CC[C@@H]4CC(=O)CC[C@]4(C)[C@H]3CC[C@]12C` [NC30015], the inhibition at 1 µM in experiment [1] and in experiment [4] was under 20% each time. Besides, the IC50 in experiment [2] is at least 0.2 µM; in experiment [3], under 0.5 µM.
Regarding `CC(C)[C@@H](CS(=O)(=O)O)NC(=O)CC[C@@H](C)[C@H]1CC[C@H]2[C@@H]3CC[C@@H]4CC(=O)CC[C@]4(C)[C@H]3CC[C@]12C` [NC30016], the inhibition at 1 µM in experiment [1] and in experiment [4] was 20 to 50% throughout. The IC50 in experiment [2] is at least 0.2 µM; in experiment [3], under 0.5 µM.
With `CC(C)[C@H](CS(=O)(=O)O)NC(=O)CC[C@@H](C)[C@H]1CC[C@H]2[C@@H]3CC[C@@H]4CC(=O)CC[C@]4(C)[C@H]3CC[C@]12C` [NC30017], the inhibition at 1 µM in experiment [1] and in experiment [4] was under 20% each time. Besides, the IC50 in experiment [2] was at least 0.2 µM; in experiment [3], at least 2 µM.
Turning to `C[C@H](CCC(=O)N[C@H](CS(=O)(=O)O)c1ccccc1)[C@H]1CC[C@H]2[C@@H]3CC[C@@H]4CC(=O)CC[C@]4(C)[C@H]3CC[C@]12C` [NC30018], the inhibition at 1 µM in experiment [1] and in experiment [4] was under 20% in each case. Also, the IC50 in experiment [2] was at least 0.2 µM; in experiment [3], at least 2 µM.
`C[C@H](CCC(=O)N[C@@H](CS(=O)(=O)O)c1ccccc1)[C@H]1CC[C@H]2[C@@H]3CC[C@@H]4CC(=O)CC[C@]4(C)[C@H]3CC[C@]12C` [NC30019]: the inhibition at 1 µM in experiment [1] and in experiment [4] was under 20% in each case. In addition, the results for the IC50 in experiment [2] and in experiment [3] were at least 0.2 µM and 1 to 2 µM, respectively.
On to `C[C@H](CCC(=O)N1CCC[C@@H]1CS(=O)(=O)O)[C@H]1CC[C@H]2[C@@H]3CC[C@@H]4CC(=O)CC[C@]4(C)[C@H]3CC[C@]12C` [NC30020], for which the results for the inhibition at 1 µM in experiment [1] and in experiment [4] were 20 to 50% and under 20%, respectively. For the same compound, the IC50 in experiment [2] is at least 0.2 µM; in experiment [3] it was at least 2 µM.
Consider `C[C@H](CCC(=O)NC[C@H](C)S(=O)(=O)O)[C@H]1CC[C@H]2[C@@H]3CC[C@@H]4CC(=O)CC[C@]4(C)[C@H]3CC[C@]12C` [NC30022], for which the inhibition at 1 µM in experiment [1] and in experiment [4] was 20 to 50% throughout. Moreover, the IC50 in experiment [2] is at least 0.2 µM; in experiment [3], at least 2 µM.
In the case of `C[C@H](CCC(=O)NC[C@@H](C)S(=O)(=O)O)[C@H]1CC[C@H]2[C@@H]3CC[C@@H]4CC(=O)CC[C@]4(C)[C@H]3CC[C@]12C` [NC30023], the inhibition at 1 µM in experiment [1] is 50 to 100%; in experiment [4] it was over 100%. Also, the values for the IC50 in experiment [2] and in experiment [3] were at least 0.2 µM and at least 2 µM, respectively.
For `C[C@H](CCC(=O)N[C@H](CO)CS(=O)(=O)O)[C@H]1CC[C@H]2[C@@H]3CC[C@@H]4CC(=O)CC[C@]4(C)[C@H]3CC[C@]12C` [NC30025], the inhibition at 1 µM in experiment [1] is under 20%; in experiment [4] it was over 100%. Besides, the IC50 in experiment [2] is at least 0.2 µM; in experiment [3], 1 to 2 µM.
Consider `C[C@H](CCC(=O)N[C@H]1CCCC[C@H]1S(=O)(=O)O)[C@H]1CC[C@H]2[C@@H]3CC[C@@H]4CC(=O)CC[C@]4(C)[C@H]3CC[C@]12C` [NC30027], for which the inhibition at 1 µM in experiment [1] and in experiment [4] was over 100% in each case. In addition, the figures for the IC50 in experiment [2] and in experiment [3] were under 0.05 µM and 0.5 to 1 µM, respectively.
Turning to `C[C@H](CCC(=O)N[C@@H](C)CS(=O)(=O)O)[C@H]1CC[C@H]2[C@@H]3CC[C@@H]4CC(=O)CC[C@]4(C)[C@H]3CC[C@]12C` [NC30028], the inhibition at 1 µM in experiment [1] and in experiment [4] was under 20% in each case. Further, the results for the IC50 in experiment [2] and in experiment [3] were at least 0.2 µM and 0.5 to 1 µM, respectively.
As for `C[C@H](CS(=O)(=O)O)NC(=O)CC[C@@H](C)[C@H]1CC[C@H]2[C@@H]3CC[C@@H]4CC(=O)CC[C@]4(C)[C@H]3CC[C@]12C` [NC30029], the values for the inhibition at 1 µM in experiment [1] and in experiment [4] were 20 to 50% and under 20%, respectively. In addition, the IC50 is at least 0.2 µM in experiment [2] and 0.5 to 1 µM in experiment [3].
As to `CC(C)C[C@@H](CS(=O)(=O)O)NC(=O)CC[C@@H](C)[C@H]1CC[C@H]2[C@@H]3CC[C@@H]4CC(=O)CC[C@]4(C)[C@H]3CC[C@]12C` [NC30030], the inhibition at 1 µM in experiment [1] is 20 to 50%; in experiment [4], under 20%. Further, the IC50 in experiment [2] was at least 0.2 µM; in experiment [3] it was 0.5 to 1 µM.
`CC(C)C[C@H](CS(=O)(=O)O)NC(=O)CC[C@@H](C)[C@H]1CC[C@H]2[C@@H]3CC[C@@H]4CC(=O)CC[C@]4(C)[C@H]3CC[C@]12C` [NC30031]: the inhibition at 1 µM in experiment [1] was 20 to 50%; in experiment [4] it was under 20%. The results for the IC50 in experiment [2] and in experiment [3] were at least 0.2 µM and 0.5 to 1 µM, respectively.
With `C[C@H](CCC(=O)N1CC[C@H](S(=O)(=O)O)C1)[C@H]1CC[C@H]2[C@@H]3CC[C@@H]4CC(=O)CC[C@]4(C)[C@H]3CC[C@]12C` [NC30033], the values for the inhibition at 1 µM in experiment [1] and in experiment [4] were 20 to 50% and under 20%, respectively. The values for the IC50 in experiment [2] and in experiment [3] were 0.05 to 0.1 µM and 0.5 to 1 µM, respectively.
On to `C[C@H](CCC(=O)N1CC[C@@H](S(=O)(=O)O)C1)[C@H]1CC[C@H]2[C@@H]3CC[C@@H]4CC(=O)CC[C@]4(C)[C@H]3CC[C@]12C` [NC30034], for which the inhibition at 1 µM in experiment [1] and in experiment [4] was under 20% in each case. Moreover, the figures for the IC50 in experiment [2] and in experiment [3] were at least 0.2 µM and 0.5 to 1 µM, respectively.
For `C[C@H](CCC(=O)N(CCN(C)C)CCS(=O)(=O)O)[C@H]1CC[C@H]2[C@@H]3CC[C@@H]4CC(=O)CC[C@]4(C)[C@H]3CC[C@]12C` [NC30035], the inhibition at 1 µM in experiment [1] and in experiment [4] was over 100% in each case. Moreover, the IC50 was under 0.05 µM in experiment [2] and 0.5 to 1 µM in experiment [3].
Consider `C[C@H](CCC(=O)N(CCS(=O)(=O)O)c1ccccc1)[C@H]1CC[C@H]2[C@@H]3CC[C@@H]4CC(=O)CC[C@]4(C)[C@H]3CC[C@]12C` [NC30037], for which the inhibition at 1 µM is over 100% in experiment [1] and 20 to 50% in experiment [4]. In addition, the results for the IC50 in experiment [2] and in experiment [3] were under 0.05 µM and at least 2 µM, respectively.
`CC[C@H]1[C@@H](O)[C@@H]2[C@H](CC[C@]3(C)[C@@H]([C@H](C)CCC(=O)NCCC(=O)O)CC[C@@H]23)[C@@]2(C)CC[C@@H](O)C[C@@H]12` [NC40002]: the results for the inhibition at 1 µM in experiment [1] and in experiment [4] were 20 to 50% and under 20%, respectively. Also, the figures for the IC50 in experiment [2] and in experiment [3] were at least 0.2 µM and at least 2 µM, respectively.
Turning to `CC[C@H]1[C@@H](O)[C@@H]2[C@H](CC[C@]3(C)[C@@H]([C@H](C)CCC(=O)N(C)CCS(=O)(=O)O)CC[C@@H]23)[C@@]2(C)CC[C@@H](O)C[C@@H]12` [NC40004], the inhibition at 1 µM in experiment [1] is 50 to 100%; in experiment [4] it was under 20%. In addition, the IC50 in experiment [2] is at least 0.2 µM; in experiment [3], at least 2 µM.

As usually defined, the inhibition is how much of the control response was suppressed. One may read the IC50 as the concentration that inhibits the measured activity by half.
